The text below walks through data of patent publication US9198431B2, “Use of N6-(2-hydroxyethyl)-adenosine in preparation of crop pesticide” (Zhejiang Subtropical Crops Research Institute, priority 2013, dated 2015).

Structures are written as SMILES.

Holding throughout (format): in vivo
Experiment [1] concerns diamondback moth larvae. The experiment in a line: Selective antifeeding (feeding suppression), leaf disk dipping. The note with it: for Selective antifeeding rate: third-instar larvae. The procedure:
(§1) Test Method: • Preparing N6-(2-hydroxyethyl)-adenosine solutions of various concentrations; • Diluting the 20% N6-(2-hydroxyethyl)-adenosine suspension to make solutions with 1000 mg/L, 800 mg/L, 600 mg/L, 400 mg/L, and 200 mg/L active ingredient concentrations, respectively, for testing the roles of N6-(2-hydroxyethyl)-adenosine in stomach poisoning of diamondback moth larvae. • Diluting the 20% N6-(2-hydroxyethyl)-adenosine suspending agent to make solutions with 300 mg/L, 250 mg/L, 200 mg/L, 150 mg/L and 100 mg/L active ingredient concentrations, respectively, to test the roles of N6-(2-hydroxyethyl)-adenosine in suppressing feeding and retarding development of diamondback moth larvae.
(§2) Round leaf disk dipping method was employed in this test. Prepare leaf disks out of cabbage leaves with a round hole puncher (d=2 cm), and soak the disks in N6-(2-hydroxyethyl)-adenosine solutions with different concentrations for 30 seconds. Then, take the leaf disks out and drain the excessive solution with clean blotting paper to prepare them for treatments. Use 0.1% triton solution as a blank control.
Put a good-size piece of filter paper in a Petri-dish, and then put two processed and two control leaf disks into the same Petri-dish, which are arrayed in a cross fashion. Inoculate three third-instar diamondback moth larvae that have been subjected to 4-hour starvation treatments onto the leaf disks and seal the dish. Prepare 10 replicas for each treatment group. After 48 hours, pick five replicas with 0% death rate to measure the leaf areas that have been consumed by the larvae with a grid paper and calculate the average leaf consumption areas. Antifeeding Rate (%)=[(Leaf Consumption Area in the Control Group−Leaf Consumption Area in the Treatment Group)÷(Leaf Consumption Area in the Control Group+Leaf Consumption Area in the Treatment Group)]×100.

The subject of experiment [2] is diamondback moth larvae. In words: Non-selective antifeeding, leaf disk dipping. Particulars: third-instar larvae. As for the experimental part:
as §1, §2
Put a good-sized piece of filter paper in a Petri-dish, and then put two processed leaf disks in the same Petri-dish and another two control leaf disks in a different dish. Inoculate three third-instar diamondback moth larvae that have been subjected to 4-hour starvation treatments onto the leaf disks and seal the dish. Prepare 10 replicas for each treatment group. After 48 hours, pick five replicas with 0% death rate to measure the leaf areas that have been consumed by the larvae with a grid paper and calculate the average leaf consumption areas. Non-Selective Antifeeding Rate (%)=[(Leaf Consumption Area in the Control Group—Leaf Consumption Area in the Treatment Group)÷Leaf Consumption Area in the Control Group]×100.

The subject of a further experiment is aphids. The experiment in a line: Insecticidal activity on aphids. Particulars: experimental data omitted.
Experiment [3] concerns diamondback moth larvae. The experiment in a line: Stomach poisoning (oral toxicity) of diamondback moth larvae. Particulars: for Average Corrected Death Rate (%), stomach poisoning: 96 h. The procedure: Test Insects: Artificial subculture breeding of diamondback moths collected at Xinqiao greenhouse vegetable field in Wenzhou was carried out in a thermostat illumination incubator and the second-instar larvae breeds of a consistent size and color were picked for tests.
as §1
Cut healthy, fresh cabbage leaves in small pieces that are 7 cm in diameters. Smear these pieces with various spore suspensions and leave them to dry naturally. Repeat the smearing process 3 times, and then put the leaves in plastic Petri-dishes with tiny holes that are 2 cm in diameter. Cover the dishes with nylon membranes to keep the leaves fresh.
Pick out healthy indoor bred third-instar diamondback moth larvae of similar sizes with a writing brush, and inoculate them onto the cabbage leaves. Make 4 replicas of the treatments, each of which should contain 20 tested larvae. Cultivate the dishes in an incubator set to 25±1° C., 75˜80% relative humidity and 16 L:8D illumination. Observe and record the number of larvae that die of infection every day. Use 0.1% triton solution as a blank control and use the Abbott formula for correction of death rates. Corrected Death Rate (%)=[(Death Rate of the Treatment Group−Death Rate of the Control Group)/(1−Death Rate of the Control Group)]×100.
(§3) The results obtained were analyzed for significances of difference using Ducan's New Multiple Range Method. The various lowercase letters following the data in the same column indicate significant differences at a level of 0.05 level (P<0.05). The various capital letters following the data in the same column indicate significant differences at a level of 0.01 (P<0.01).

Experiment [4] has as its system diamondback moth larvae. The experiment in a line: Development retardation (weight gain inhibition) of diamondback moth larvae. The note with it: for Average Weight (10 Tested Larvae) (mg) Δ4d: weight gain. The procedure: as §1
Soak the cabbage leaves (7 cm in diameters) in the prepared solutions for 30 seconds, take the leaves out, leave them to dry, and then transfer the dried leaves to a Petri-dish (9 cm in diameter) cushioned with a wet filter paper. Inoculate 15 weighed third-instar diamondback moth larvae onto each Petri-dish. […] Prepare four replicas for each treatment group to determine the effects of various solutions in inhibiting the weight gain of the larvae.
Weight-Gain Inhibition Rate (%)=[(the Average Weight Gain of the Control Group−the Average Weight Gain of the Treatment Group)÷the Average Weight Gain of the Control Group]×100.
as §3

Usually inhibition stands for how much of the control response was suppressed. With `OCCNc1ncnc2c1ncn2[C@@H]1O[C@H](CO)[C@@H](O)[C@H]1O` [N6-(2-hydroxyethyl)-adenosine], the Selective antifeeding rate with diamondback moth larvae [1] (200 mg/L, 48 hour) was determined as 71.30%; in the experiment on diamondback moth larvae [1] (250 mg/L, 48 hours), 83.47%; in the experiment with diamondback moth larvae [1] (300 mg/L, 48 hours), 83.82%. Besides, the “Feeding capacity of the tested larvae (FIGS. 2 and 3)” value with diamondback moth larvae [1] (300, 250, 200, 150 and 100 mg/L) is recorded as “clear declines in their feeding capacity”. Also, the Non-selective antifeeding rate in the experiment on diamondback moth larvae [2] (200 mg/L, 48 hour) was 65.75%; with diamondback moth larvae [2] (250 mg/L, 48 hours) it was 75.73%; in the experiment with diamondback moth larvae [2] (300 mg/L, 48 hours) it was 77.64%. The “Insecticidal activity on aphids” value with aphids is given as “able to kill aphids”. Also, the “Average Corrected Death Rate (%), stomach poisoning” value with diamondback moth larvae [3] (800 mg/L) came out at 84.21%; with diamondback moth larvae [3] (1000 mg/L) it was 86.84%. In addition, the “Post-treatment death rates of the larvae” value in the experiment with diamondback moth larvae [3] (25-hour post-treatment, 1000 to 200 mg/L) is reported as “below 30%”. The “Lethal effect on diamondback moth” value in the experiment on diamondback moth larvae [3] (in vivo) is recorded as “strong lethal effect”. For the same compound, the “Average Weight (10 Tested Larvae) (mg) Δ4d” value in the experiment with diamondback moth larvae [4] (100 mg/L) amounted to 4.13 mg; with diamondback moth larvae [4] (150 mg/L) it was 2.40 mg; in the experiment with diamondback moth larvae [4] (200 mg/L) it was 1.33 mg; in the experiment with diamondback moth larvae [4] (250 mg/L) it was 0.65 mg; with diamondback moth larvae [4] (300 mg/L) it was 0.48 mg. Also, in the experiment with diamondback moth larvae [4] (Plutella xylostella, 72 h, 100 mg/L, 3 days after treatment, third-instar larvae, read-out: Weight Gain Inhibition Rate (%)), the inhibition at 100 µg/mL turned out to be 18.3%. For the same compound, in the experiment on diamondback moth larvae [4] (Plutella xylostella, 72 h, 150 mg/L, 3 days after treatment, third-instar larvae, read-out: Weight Gain Inhibition Rate (%)), the inhibition at 150 µg/mL amounted to 52.5%. In addition, the inhibition at 200 µg/mL in the experiment with diamondback moth larvae [4] (Plutella xylostella, 72 h, 200 mg/L, 3 days after treatment, third-instar larvae, read-out: Weight Gain Inhibition Rate (%)) amounted to 73.8%. Moreover, in the experiment with diamondback moth larvae [4] (Plutella xylostella, 72 h, 250 mg/L, 3 days after treatment, third-instar larvae, read-out: Weight Gain Inhibition Rate (%)), the inhibition at 250 µg/mL turned out to be 87.1%. In addition, in the experiment with diamondback moth larvae [4] (Plutella xylostella, 72 h, 300 mg/L, 3 days after treatment, third-instar larvae, read-out: Weight Gain Inhibition Rate (%)), the inhibition at 300 µg/mL is 90.6%.
